The target in assay [1] is T1, FPR1 (Homo sapiens, UniProt P21462).
T1 sequence (P21462 1-350): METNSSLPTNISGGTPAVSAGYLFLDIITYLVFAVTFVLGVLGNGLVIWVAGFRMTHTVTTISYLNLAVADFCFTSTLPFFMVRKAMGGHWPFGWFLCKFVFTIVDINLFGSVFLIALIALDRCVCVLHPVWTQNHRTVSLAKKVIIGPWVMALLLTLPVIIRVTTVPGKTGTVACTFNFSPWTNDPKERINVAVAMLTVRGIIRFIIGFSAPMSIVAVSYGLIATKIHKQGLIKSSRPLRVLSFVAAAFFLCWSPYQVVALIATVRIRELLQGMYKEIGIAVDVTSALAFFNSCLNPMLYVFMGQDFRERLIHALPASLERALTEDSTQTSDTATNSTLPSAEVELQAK
The assay is described as follows: Change in calcium activity by peptide, FPR1 activation effect. The conditions noted are these: calcium activity (Fura-2), graded per Table 3, read-out: EC50 for [Ca^2+] FPR1. The class given is cell-based. The method, boiled down:
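Cells plated at 3×10^5 per well the day before were loaded with Fura-2 for 1 h at 37 °C, then kept 30 min in the dark at room temperature. Peptide-evoked calcium changes were recorded on a FlexStation 3.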

The target of assay [2] is T2, FPR2 (Homo sapiens, UniProt P25090).
T2 construct: expressed in transfected cells; host or cells: RBL cells (RBL-FPR2)
T2 sequence (P25090 1-351): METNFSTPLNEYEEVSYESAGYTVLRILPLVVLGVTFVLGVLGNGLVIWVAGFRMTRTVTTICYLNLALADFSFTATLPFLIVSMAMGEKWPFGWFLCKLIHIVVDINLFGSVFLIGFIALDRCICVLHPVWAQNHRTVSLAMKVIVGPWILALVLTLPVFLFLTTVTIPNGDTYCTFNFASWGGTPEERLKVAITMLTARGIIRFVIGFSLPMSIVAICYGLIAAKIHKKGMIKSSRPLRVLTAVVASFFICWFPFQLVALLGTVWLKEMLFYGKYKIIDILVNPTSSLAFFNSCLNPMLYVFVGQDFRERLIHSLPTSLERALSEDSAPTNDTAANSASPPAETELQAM
Briefly: Change in calcium activity by peptide (Fura-2) in RBL cells overexpressing FPR2. In kind it is cell-based. The note with it: calcium activity (Fura-2), graded per Table 3, read-out: EC50 for [Ca^2+] FPR2. In outline: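 Rat basophilic leukemia cells overexpressing FPR2 loaded with Fura-2 (37 °C 1 h, then RT 30 min dark); peptides (0.5 mM stocks in water or 50% DMSO) diluted in HBSS + 20 mM HEPES and added on a plate reader, intracellular Ca2+ change recorded.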

Peptide text beside a SMILES is read from it.

In the case of `CSCC[C@@H](NC(=O)[C@@H](NC(=O)[C@H](Cc1ccc(O)cc1)NC(=O)[C@H](Cc1ccc(O)cc1)NC(=O)[C@H](CCCNC(=N)N)NC(=O)[C@H](Cc1c[nH]c2ccccc12)NC(C)=O)C(C)C)C(N)=O` [Peptide 95] (HELM PEPTIDE1{[ac].W.R.Y.Y.V.[dM].[am]}$$$$V2.0), the concentration giving a half-maximal response (EC50) in assay [1] was in the range of 0.101 to 1 µM; in assay [2], 0.011 to 0.1 µM.

As for `CSCC[C@@H](NC(=O)[C@@H](NC(=O)[C@H](Cc1ccc(O)cc1)NC(=O)[C@H](Cc1ccc(O)cc1)NC(=O)[C@H](CCCCN)NC(=O)[C@H](Cc1c[nH]c2ccccc12)NC(=O)[C@@H](N)CCCCN)C(C)C)C(N)=O` [Peptide 96] (HELM PEPTIDE1{K.W.K.Y.Y.V.[dM].[am]}$$$$V2.0), the figures for the 50% effective concentration (EC50) in assay [1] and in assay [2] were 1 to 10 µM and less than 0.01 µM, respectively.

Regarding `CSCC[C@H](NC(=O)[C@@H](N)CCCNC(=N)N)C(=O)N[C@@H](CCCNC(=N)N)C(=O)N[C@@H](Cc1ccc(O)cc1)C(=O)N[C@@H](Cc1ccc(O)cc1)C(=O)N[C@H](C(=O)N[C@H](CCSC)C(N)=O)C(C)C` [Peptide 97] (HELM PEPTIDE1{R.M.R.Y.Y.V.[dM].[am]}$$$$V2.0), the half-maximal effective concentration (EC50) in assay [1] was 1 to 10 µM; in assay [2], less than 0.01 µM.

In the case of `CSCC[C@H](NC(=O)[C@H](CCCNC(=N)N)NC(C)=O)C(=O)N[C@@H](CCCNC(=N)N)C(=O)N[C@@H](Cc1ccc(O)cc1)C(=O)N[C@@H](Cc1ccc(O)cc1)C(=O)N[C@H](C(=O)N[C@H](CCSC)C(N)=O)C(C)C` [Peptide 98] (HELM PEPTIDE1{[ac].R.M.R.Y.Y.V.[dM].[am]}$$$$V2.0), the 50% effective concentration (EC50) is 1 to 10 µM in assay [1] and less than 0.01 µM in assay [2].

For the compound `CCCCCCCC(=O)N[C@@H](CCCNC(=N)N)C(=O)N[C@@H](CCSC)C(=O)N[C@@H](CCCNC(=N)N)C(=O)N[C@@H](Cc1ccc(O)cc1)C(=O)N[C@@H](Cc1ccc(O)cc1)C(=O)N[C@H](C(=O)N[C@H](CCSC)C(N)=O)C(C)C` [Peptide 99] (HELM PEPTIDE1{[CCCCCCCC(=O)[*:2]].R.M.R.Y.Y.V.[dM].[am]}$$$$V2.0), the EC50 in assay [1] lay in the range of 1 to 10 µM; in assay [2] it was 0.011 to 0.1 µM.

On to `CSCC[C@H](N)C(=O)N[C@@H](CCCNC(=N)N)C(=O)N[C@@H](Cc1ccc(O)cc1)C(=O)N[C@@H](Cc1ccc(O)cc1)C(=O)N[C@H](C(=O)N[C@H](CCSC)C(N)=O)C(C)C` [Peptide 100] (HELM PEPTIDE1{M.R.Y.Y.V.[dM].[am]}$$$$V2.0), for which the EC50 is 1 to 10 µM in assay [1] and less than 0.01 µM in assay [2].

Consider `CSCC[C@@H](NC(=O)[C@@H](NC(=O)[C@H](Cc1c[nH]c2ccccc12)NC(=O)[C@H](Cc1ccc(O)cc1)NC(=O)[C@H](CCCNC(=N)N)NC(=O)[C@H](Cc1c[nH]c2ccccc12)NC(=O)[C@@H](N)CCCNC(=N)N)C(C)C)C(N)=O` [Peptide 101] (HELM PEPTIDE1{R.W.R.Y.W.V.[dM].[am]}$$$$V2.0), for which the EC50 is 1 to 10 µM in assay [1] and less than 0.01 µM in assay [2].

Turning to `CSCC[C@@H](NC(=O)[C@@H](NC(=O)[C@H](Cc1c[nH]c2ccccc12)NC(=O)[C@H](Cc1ccc(O)cc1)NC(=O)[C@H](CCCNC(=N)N)NC(=O)[C@H](Cc1c[nH]c2ccccc12)NC(C)=O)C(C)C)C(N)=O` [Peptide 102] (HELM PEPTIDE1{[ac].W.R.Y.W.V.[dM].[am]}$$$$V2.0), the concentration for a half-maximal effect (EC50) in assay [1] was 0.101 to 1 µM; in assay [2], less than 0.01 µM.

In the case of `CSCC[C@@H](NC(=O)[C@@H](NC(=O)[C@H](Cc1c[nH]c2ccccc12)NC(=O)[C@H](Cc1ccc(O)cc1)NC(=O)[C@H](CCCCN)NC(=O)[C@H](Cc1c[nH]c2ccccc12)NC(=O)[C@H](CCCCN)NC(C)=O)C(C)C)C(N)=O` [Peptide 103] (HELM PEPTIDE1{[ac].K.W.K.Y.W.V.[dM].[am]}$$$$V2.0), the EC50 in assay [1] is 1 to 10 µM; in assay [2] it was 0.011 to 0.1 µM.

In the case of `CSCC[C@H](NC(=O)[C@H](CCCNC(=N)N)NC(C)=O)C(=O)N[C@@H](CCCNC(=N)N)C(=O)N[C@@H](Cc1ccc(O)cc1)C(=O)N[C@@H](Cc1c[nH]c2ccccc12)C(=O)N[C@H](C(=O)N[C@H](CCSC)C(N)=O)C(C)C` [Peptide 104] (HELM PEPTIDE1{[ac].R.M.R.Y.W.V.[dM].[am]}$$$$V2.0), the EC50 was 1 to 10 µM in assay [1] and less than 0.01 µM in assay [2].

For `CSCC[C@H](NC(C)=O)C(=O)N[C@@H](CCCNC(=N)N)C(=O)N[C@@H](Cc1ccc(O)cc1)C(=O)N[C@@H](Cc1c[nH]c2ccccc12)C(=O)N[C@H](C(=O)N[C@H](CCSC)C(N)=O)C(C)C` [Peptide 105] (HELM PEPTIDE1{[ac].M.R.Y.W.V.[dM].[am]}$$$$V2.0), the EC50 in assay [1] was 0.101 to 1 µM; in assay [2], less than 0.01 µM.

As for `CSCC[C@H](NC(=O)[C@@H](N)CCCNC(=N)N)C(=O)N[C@@H](CCCNC(=N)N)C(=O)N[C@@H](Cc1ccc(O)cc1)C(=O)N[C@@H](Cc1c[nH]c2ccccc12)C(=O)N1CCC[C@H]1C(=O)N[C@H](CCSC)C(N)=O` [Peptide 106] (HELM PEPTIDE1{R.M.R.Y.W.P.[dM].[am]}$$$$V2.0), the EC50 in assay [1] was 0.101 to 1 µM; in assay [2], less than 0.01 µM.

Consider `CSCC[C@H](NC(=O)[C@H](CCCNC(=N)N)NC(C)=O)C(=O)N[C@@H](CCCNC(=N)N)C(=O)N[C@@H](Cc1ccc(O)cc1)C(=O)N[C@@H](Cc1c[nH]c2ccccc12)C(=O)N1CCC[C@H]1C(=O)N[C@H](CCSC)C(N)=O` [Peptide 107] (HELM PEPTIDE1{[ac].R.M.R.Y.W.P.[dM].[am]}$$$$V2.0), for which the figures for the EC50 in assay [1] and in assay [2] were 0.101 to 1 µM and less than 0.01 µM, respectively.

As to `CCCC(=O)N[C@@H](CCCNC(=N)N)C(=O)N[C@@H](CCSC)C(=O)N[C@@H](CCCNC(=N)N)C(=O)N[C@@H](Cc1ccc(O)cc1)C(=O)N[C@@H](Cc1c[nH]c2ccccc12)C(=O)N1CCC[C@H]1C(=O)N[C@H](CCSC)C(N)=O` [Peptide 108] (HELM PEPTIDE1{[CCCC(=O)[*:2]].R.M.R.Y.W.P.[dM].[am]}$$$$V2.0), the EC50 was 0.101 to 1 µM in assay [1] and less than 0.01 µM in assay [2].

On to `CCCCCCCC(=O)N[C@@H](CCCNC(=N)N)C(=O)N[C@@H](CCSC)C(=O)N[C@@H](CCCNC(=N)N)C(=O)N[C@@H](Cc1ccc(O)cc1)C(=O)N[C@@H](Cc1c[nH]c2ccccc12)C(=O)N1CCC[C@H]1C(=O)N[C@H](CCSC)C(N)=O` [Peptide 109] (HELM PEPTIDE1{[CCCCCCCC(=O)[*:2]].R.M.R.Y.W.P.[dM].[am]}$$$$V2.0), for which the values for the EC50 in assay [1] and in assay [2] were 1 to 10 µM and less than 0.01 µM, respectively.

In the case of `CSCC[C@H](N)C(=O)N[C@@H](CCCNC(=N)N)C(=O)N[C@@H](Cc1ccc(O)cc1)C(=O)N[C@@H](Cc1c[nH]c2ccccc12)C(=O)N1CCC[C@H]1C(=O)N[C@H](CCSC)C(N)=O` [Peptide 110] (HELM PEPTIDE1{M.R.Y.W.P.[dM].[am]}$$$$V2.0), the EC50 was 0.101 to 1 µM in assay [1] and less than 0.01 µM in assay [2].

Consider `CSCC[C@H](NC(C)=O)C(=O)N[C@@H](CCCNC(=N)N)C(=O)N[C@@H](Cc1ccc(O)cc1)C(=O)N[C@@H](Cc1c[nH]c2ccccc12)C(=O)N1CCC[C@H]1C(=O)N[C@H](CCSC)C(N)=O` [Peptide 111] (HELM PEPTIDE1{[ac].M.R.Y.W.P.[dM].[am]}$$$$V2.0), for which the figures for the concentration for a half-maximal effect (EC50) in assay [1] and in assay [2] were 1 to 10 µM and less than 0.01 µM, respectively.

As to `CCCC(=O)N[C@@H](CCSC)C(=O)N[C@@H](CCCNC(=N)N)C(=O)N[C@@H](Cc1ccc(O)cc1)C(=O)N[C@@H](Cc1c[nH]c2ccccc12)C(=O)N1CCC[C@H]1C(=O)N[C@H](CCSC)C(N)=O` [Peptide 112] (HELM PEPTIDE1{[CCCC(=O)[*:2]].M.R.Y.W.P.[dM].[am]}$$$$V2.0), the EC50 was 1 to 10 µM in assay [1] and less than 0.01 µM in assay [2].

In general, EC50 refers to the midpoint of the concentration-response curve.

These data come from patent publication US20250361268A1, “NOVEL ANTI-INFLAMMATORY PEPTIDE AND USE THEREOF” (NOVACELL TECHNOLOGY INC., priority 2022, published 2025).
